IC50 data for ten compounds are collected here from patent publication US20230081426A1, “COMPOUNDS AND METHODS FOR KRAS MODULATION AND INDICATIONS THEREFOR” (Plexxikon Inc., priority 2020, published 2023).

Structures are written as SMILES.

Assay [1] addresses T1, G12V-mutant human KRAS (amino acid residues 1-188) (Homo sapiens, UniProt P01116, G12V).
T1 construct: G12V-mutant human KRAS (amino acid residues 1-188) with FLAG tag was purified from E. coli; made in house; host or cells: E. coli
The experiment in a line: KRAS Binding Competition Assay (AlphaScreen; biotinylated KRpep-2d analogue), G12V. The conditions noted are these: geometric mean, read-out: KRAS GMean IC50 (uM) MUTATION: G12V.

Assay [2] concerns the target T2, G12D-mutant human KRAS (amino acid residues 1-188) (Homo sapiens, UniProt P01116, G12D).
T2 construct: G12D or G12C-mutant human KRAS (amino acid residues 1-188) with FLAG tag; made in house; host or cells: E. coli
Description: KRAS Binding Disruption Assay (AlphaScreen; biotinylated KRpep-2d analogue or RAF1-RBD), G12D. Conditions: KRAS G12D; geometric mean; read-out: KRAS GMean IC50 (uM) MUTATION: G12D. The procedure, abridged:
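Displacement format with mutant KRAS, biotinylated KRpep-2d analogue or RAF1-RBD (5-20 nM each) at pH 7.5 with 5 mM MgCl2.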
For orientation: In Alpha technology, singlet oxygen from a donor bead excites a nearby acceptor bead.

As for `CC(=O)Nc1cccc(-c2ccc3c(N4C[C@H]5CC[C@@H](C4)N5)nc(OCC4CCCN4C)nc3c2)c1` (stereo partly drawn) [P-0156, N-(3-(4-((1R,5S)-3,8-diazabicyclo[3.2.1]octan-3-yl)-2-((1-methylpyrrolidin-2-yl)methoxy)quinazolin-7-yl)phenyl)acetamide], the half-inhibitory concentration (IC50) in assay [1] and in assay [2] was 100 to 1000 µM throughout.
As to `CN1CCC[C@H]1COc1nc(N2C[C@H]3CC[C@@H](C2)N3)c2ccc(-c3cc(N)c(Cl)cc3Cl)cc2n1` [P-0157, 5-(4-((1R,5S)-3,8-diazabicyclo[3.2.1]octan-3-yl)-2-(((S)-1-methylpyrrolidin-2-yl)methoxy)quinazolin-7-yl)-2,4-dichloroaniline], the IC50 (commonly the concentration at which inhibition is half-maximal) in assay [1] fell in the range of 100 to 1000 µM; in assay [2], 10 to 100 µM.
`CN1CCC[C@H]1COc1nc(N2C[C@H]3CC[C@@H](C2)N3)c2ccc(-c3cc(N)cc(F)c3F)cc2n1` [P-0158, 3-(4-((1R,5S)-3,8-diazabicyclo[3.2.1]octan-3-yl)-2-(((S)-1-methylpyrrolidin-2-yl)methoxy)quinazolin-7-yl)-4,5-difluoroaniline]: the IC50 in assay [1] and in assay [2] was 10 to 100 µM each time.
In the case of `CN1CCC[C@H]1COc1nc(N2C[C@H]3CC[C@@H](C2)N3)c2ccc(-c3ccc4c(c3)NC(=O)CO4)cc2n1` [P-0159, 6-(4-((1R,5S)-3,8-diazabicyclo[3.2.1]octan-3-yl)-2-(((S)-1-methylpyrrolidin-2-yl)methoxy)quinazolin-7-yl)-2H-benzo[b][1,4]oxazin-3(4H)-one], the IC50 in assay [1] and in assay [2] was 100 to 1000 µM throughout.
With `CC(=O)Nc1cncc(-c2ccc3c(N4C[C@H]5CC[C@@H](C4)N5)nc(OC[C@@H]4CCCN4C)nc3c2)c1` [P-0160, N-(5-(4-((1R,5S)-3,8-diazabicyclo[3.2.1]octan-3-yl)-2-(((S)-1-methylpyrrolidin-2-yl)methoxy)quinazolin-7-yl)pyridin-3-yl)acetamide], the IC50 in assay [1] and in assay [2] was 100 to 1000 µM in each case.
For `Cc1ccc2[nH]ncc2c1-c1ccc2c(N3C[C@H]4CC[C@@H](C3)N4)nc(OC[C@@H]3CCCN3C)nc2c1` [P-0161, 4-((1R,5S)-3,8-diazabicyclo[3.2.1]octan-3-yl)-7-(5-methyl-1H-indazol-4-yl)-2-(((S)-1-methylpyrrolidin-2-yl)methoxy)quinazoline], the IC50 lay within 100 to 1000 µM in assay [1] and 0.0001 to 10 µM in assay [2].
For `CN1CCC[C@H]1COc1nc(N2C[C@H]3CC[C@@H](C2)N3)c2ccc(-c3ccc4cn[nH]c4c3)cc2n1` [P-0162, 4-((1R,5S)-3,8-diazabicyclo[3.2.1]octan-3-yl)-7-(1H-indazol-6-yl)-2-(((S)-1-methylpyrrolidin-2-yl)methoxy)quinazoline], the IC50 in assay [1] and in assay [2] was 100 to 1000 µM in each case.
Regarding `Cc1nc2cc(-c3ccc4c(N5C[C@H]6CC[C@@H](C5)N6)nc(OC[C@@H]5CCCN5C)nc4c3)ccc2[nH]1` [P-0163, 4-((1R,5S)-3,8-diazabicyclo[3.2.1]octan-3-yl)-7-(2-methyl-1H-benzo[d]imidazol-5-yl)-2-(((S)-1-methylpyrrolidin-2-yl)methoxy)quinazoline], the half-maximal inhibitory concentration (IC50) in assay [1] and in assay [2] was 100 to 1000 µM in each case.
Regarding `CN1CCC[C@H]1COc1nc(N2C[C@H]3CC[C@@H](C2)N3)c2ccc(-c3c(F)ccc(O)c3F)cc2n1` [P-0164, 3-(4-((1R,5S)-3,8-diazabicyclo[3.2.1]octan-3-yl)-2-(((S)-1-methylpyrrolidin-2-yl)methoxy)quinazolin-7-yl)-2,4-difluorophenol], the IC50 lay in the range of 100 to 1000 µM in assay [1] and 10 to 100 µM in assay [2].
For `CN1CCC[C@H]1COc1nc(N2C[C@H]3CC[C@@H](C2)N3)c2ccc(-c3c(O)cccc3F)cc2n1` [P-0165, 2-(4-((1R,5S)-3,8-diazabicyclo[3.2.1]octan-3-yl)-2-(((S)-1-methylpyrrolidin-2-yl)methoxy)quinazolin-7-yl)-3-fluorophenol], the IC50 in assay [1] and in assay [2] was 10 to 100 µM throughout.
